Data from US20230184770A1, “Exosome Analysis And Brain Tumors” (Institute For Cancer Research d/b/a The Research Institute …, priority 2020, published 2023).

Assays:
[1] = tested on: MB-luciferase cells injected into the cerebellum; test: In vivo bioluminescence imaging of MB-luciferase tumor growth in NSG mice; design: species or system mouse
Method: MB-luciferase cells were generated and stereotaxically injected into the cerebellum of 6- to 8-week-old NSG mice. Animals were monitored weekly using in vivo bioluminescence imaging and bioluminescence was detected as Day 0. The tumor-bearing mice were treated with vismodegib (50 mg/kg) for 7 days. These mice were separated into two groups randomly, one group was treated with a vehicle and another group was treated with GW4869 (1.25 mg/kg per day) for 3 weeks (FIG. 9A). They were monitored weekly using in vivo bioluminescence imaging (FIG. 9B).

[2] = tested on: medulloblastoma cells from Ptch1−/− mice; test: Medulloblastoma cell proliferation, 48 h treatment (Ki67 immunocytochemistry); assay type: cell-based, mouse
Method: (§1) To examine the functions of exosomes in medulloblastoma cell proliferation, tumor cells from Ptch1^−/− mice were isolated and treated with GW4869 or DMSO for 48 hours. […] To determine whether tumor cell-derived exosomes mediate vismodegib resistance, exosomes from medulloblastoma cells were collected and treated with 200 nM of vismodegib for 48 hours. Medulloblastoma cells from Ptch1^−/− mice were treated with DMSO, vismodegib, or vismodegib together with tumor cell-derived exosomes for 48 hours. Following treatment, medulloblastoma cells were harvested to examine their proliferation by immunocytochemistry (see, FIG. 4). […] Finally, exosomes from medulloblastoma cells were harvested and treated with DMSO or vismodegib for 48 hours.

[3] = tested on: Gli1 mRNA (shh signaling) in medulloblastoma cells; test: Gli1 mRNA levels in MB cells by q-PCR; assay type: cell-based, mouse; conditions: MB cells after 48 hours treatment
Method: as §1

[4] = tested on: Ras protein in exosomes derived from medulloblastoma cells; test: Western blotting of Ras in exosomes from treated MB cells; assay type: cell-based, mouse; conditions: exosomes from MB cells treated with DMSO or vismodegib for 48 hours
Method: as §1

## Cl.Cl.O=C(C=Cc1ccc(C=CC(=O)Nc2ccc(C3=NCCN3)cc2)cc1)Nc1ccc(C2=NCCN2)cc1 [GW4869, N,N′-Bis[4-(4,5-dihydro-1H-imidazol-2-yl)phenyl]-3,3′-p-phenylene-bis-acrylamide dihydrochloride]
[1]; after vismodegib 50 mg/kg 7 days, GW4869 1.25 mg/kg per day 3 weeks vs vehicle, p<0.05
  tumor growth (bioluminescence) after 28 days, with vs without GW4869: significant difference
[2]; tumor cells from Ptch1−/− mice, GW4869 vs DMSO, data not shown
  medulloblastoma cell proliferation: significantly repressed medulloblastoma cell proliferation

## CS(=O)(=O)c1ccc(C(=O)Nc2ccc(Cl)c(-c3ccccn3)c2)c(Cl)c1 [vismodegib]
[3]
  Gli1 mRNA levels: decreased
[4]
  Ras protein in exosomes: readily detected
[1]; vismodegib 50 mg/kg for 7 days
  tumor growth (bioluminescence): significantly reduce tumor growth
[2]; MB cells from Ptch1−/− mice, DMSO vs vismodegib vs vismodegib + exosomes, exosome-donor cells vismodegib 200 nM
  medulloblastoma cell proliferation (Ki67+ cells): significantly repressed tumor cell proliferation
